Assay results taken from the supplement of paper PMC10307832.

What was measured:
Assay in all cases: relative viability (nuclei count vs DMSO), 5 days (fraction); higher = more cells survive
Bemcentinib + Vorinostat = compound: Nc1nc(Nc2ccc3c(c2)CC[C@@H](N2CCCC2)CC3)nn1-c1cc2c(nn1)-c1ccccc1CCC2 [Bemcentinib] + O=C(CCCCCCC(=O)Nc1ccccc1)NO [Vorinostat] (partner 1 µM)
Summary of the method: (§1)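 Relative viability equals treated-well nuclei counts divided by vehicle-well nuclei counts. Counts came from 4× images of lung cancer cell lines grown in 1536-well plates for 5 days after pin-tool dosing on the day after seeding. Dosing used one drug alone or a fixed anchor-drug dose plus five library-drug doses (not always all listed) in √10 steps, and values are medians of duplicate plates.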

Axitinib + Vorinostat = compound: CNC(=O)c1ccccc1Sc1ccc2c(/C=C/c3ccccn3)n[nH]c2c1 [Axitinib] + O=C(CCCCCCC(=O)Nc1ccccc1)NO [Vorinostat] (partner 1 µM)
Summary of the method: as §1

Bemcentinib + Pictilisib = compound: Nc1nc(Nc2ccc3c(c2)CC[C@@H](N2CCCC2)CC3)nn1-c1cc2c(nn1)-c1ccccc1CCC2 [Bemcentinib] + CS(=O)(=O)N1CCN(Cc2cc3nc(-c4cccc5[nH]ncc45)nc(N4CCOCC4)c3s2)CC1 [Pictilisib] (partner 1 µM)
Summary of the method: as §1

[1] = compound: CC1=CC=C(C=C1)C(=O)CN2C3=C(CCCC3)SC2=N [Pifithrin_alpha] + CCNC(=O)c1noc(-c2cc(C(C)C)c(O)cc2O)c1-c1ccc(CN2CCOCC2)cc1 [Luminespib] (partner 0.01 µM)
Summary of the method: as §1

Cell Line | relative viability (Bemcentinib + Vorinostat; first compound 0.04 µM) | relative viability (Bemcentinib + Vorinostat; first compound 0.1265 µM) | relative viability (Bemcentinib + Vorinostat; first compound 0.4 µM) | relative viability (Bemcentinib + Vorinostat; first compound 1.265 µM) | relative viability (Bemcentinib + Vorinostat; first compound 4 µM) | relative viability (Axitinib + Vorinostat; first compound 0.005 µM) | relative viability (Axitinib + Vorinostat; first compound 0.01581 µM) | relative viability (Axitinib + Vorinostat; first compound 0.05 µM) | relative viability (Axitinib + Vorinostat; first compound 0.1581 µM) | relative viability (Axitinib + Vorinostat; first compound 0.5 µM) | relative viability (Bemcentinib + Pictilisib; first compound 0.04 µM) | relative viability (Bemcentinib + Pictilisib; first compound 0.1265 µM) | relative viability (Bemcentinib + Pictilisib; first compound 0.4 µM) | relative viability (Bemcentinib + Pictilisib; first compound 1.265 µM) | relative viability (Bemcentinib + Pictilisib; first compound 4 µM) | relative viability ([1]; first compound 1 µM) | relative viability ([1]; first compound 3.162 µM) | relative viability ([1]; first compound 10 µM) | relative viability ([1]; first compound 31.62 µM) | relative viability ([1]; first compound 100 µM)
201T | 0.962 | 0.981 | 1.04 | 0.938 | 1.06 | 0.995 | 0.946 | 0.969 | 0.9 | 0.951 | 0.689 | 0.694 | 0.763 | 0.712 | 0.748 | 1.23 | 0.805 | 0.917 | 0.8 | 0.766
A549 |  |  |  |  |  |  |  |  |  |  | 0.524 | 0.445 | 0.579 | 0.534 | 0.494 |  |  |  |  | 
A-427 | 0.841 | 0.896 | 0.867 | 0.836 | 0.82 | 0.909 | 0.929 | 0.864 | 0.903 | 0.956 |  | 0.752 | 0.723 | 0.635 | 0.663 | 1.07 | 0.917 | 1 | 0.678 | 0.828
ABC-1 | 1.01 | 1.1 | 1.11 | 0.856 | 0.892 | 1.15 |  | 1.13 | 1.47 | 1.34 | 0.688 | 0.736 | 0.731 | 0.77 | 0.955 |  | 0.642 | 0.766 | 0.508 | 0.262
BEN | 0.567 | 0.627 | 0.562 | 0.56 | 0.6 | 0.609 | 0.637 | 0.635 | 0.592 | 0.551 | 0.551 | 0.6 | 0.631 | 0.564 | 0.591 | 0.191 | 0.285 | 0.401 | 0.493 | 0.398
CAL-12T | 0.907 | 1 | 0.824 | 0.762 | 0.831 | 0.869 | 0.72 | 0.686 | 0.737 | 1.12 | 0.302 | 0.569 | 0.532 | 0.347 | 0.364 | 0.277 | 0.327 | 0.521 |  | 0.186
COR-L23 | 0.468 | 0.47 | 0.522 | 0.477 | 0.521 | 0.516 | 0.478 | 0.502 | 0.452 | 0.586 | 0.843 | 0.978 | 1.03 | 0.953 | 0.927 | 0.703 | 0.865 | 0.562 |  | 0.484
COR-L 105 | 0.751 | 0.985 | 0.918 | 0.933 | 0.826 | 0.958 | 0.794 | 0.874 | 0.825 | 0.818 | 0.292 | 0.43 | 0.408 | 0.378 | 0.387 | 0.675 | 0.763 | 0.547 | 0.62 | 0.685
Calu-6 |  |  |  |  |  |  |  |  |  |  | 0.917 | 1.15 | 1.1 | 0.953 | 1.03 |  |  |  |  | 
ChaGo-K-1 | 0.686 | 0.832 | 0.823 | 0.749 | 0.755 | 0.727 | 0.754 | 0.797 | 0.746 | 0.737 | 0.579 | 0.733 | 0.795 | 0.426 | 0.434 | 0.563 | 0.528 | 0.477 | 0.38 | 0.581
EBC-1 |  |  |  |  |  |  |  |  |  |  | 0.391 | 0.307 | 0.39 | 0.399 | 0.353 |  |  |  |  | 
EKVX | 0.509 | 0.815 | 0.726 | 0.701 | 0.79 | 0.804 | 0.687 | 0.797 | 0.686 | 0.805 | 0.404 | 0.474 | 0.503 | 0.436 | 0.451 | 0.885 |  | 0.826 | 0.726 | 0.769
EMC-BAC-2 | 0.38 | 0.413 | 0.537 | 0.358 | 0.4 | 0.469 | 0.371 | 0.528 | 0.445 | 0.438 | 0.544 | 0.561 | 0.529 | 0.548 | 0.569 | 1.17 | 1.12 | 0.969 |  | 1.08
EPLC-272H | 0.441 | 0.458 | 0.459 | 0.405 | 0.58 | 0.341 | 0.359 | 0.498 | 0.481 | 0.459 |  | 0.356 | 0.343 | 0.294 | 0.316 | 0.279 | 0.264 | 0.564 | 0.226 | 0.16
H3255 |  | 0.755 | 0.772 | 0.784 | 0.772 | 0.806 |  | 0.927 | 0.844 | 0.796 | 0.463 | 0.488 | 0.448 | 0.465 | 0.557 | 0.744 | 0.843 | 0.965 | 0.642 | 0.964
HARA | 0.402 | 0.658 | 0.573 | 0.645 | 0.543 | 0.533 | 0.559 | 0.526 |  | 0.655 | 0.407 | 0.423 | 0.338 | 0.392 | 0.371 |  | 0.899 | 0.792 |  | 0.481
HCC-15 | 0.853 | 0.953 | 0.913 | 0.927 | 0.879 | 0.992 | 0.91 | 0.837 | 0.743 | 0.823 | 0.747 | 0.767 | 0.822 | 0.738 | 0.781 | 0.175 | 0.284 | 0.315 | 0.209 | 0.322
HCC-44 | 1.15 | 1.2 | 1.05 | 1.13 | 1.08 | 1.04 | 1.15 | 1.11 | 1.09 | 1.13 | 0.698 | 0.618 | 0.599 | 0.625 | 0.651 | 1.06 | 1.21 | 0.671 | 0.543 | 0.622
HCC-78 | 0.456 | 0.449 | 0.394 | 0.514 | 0.39 | 0.437 | 0.407 | 0.333 | 0.348 | 0.404 | 0.144 | 0.211 | 0.202 | 0.197 | 0.202 |  |  |  |  | 
